These results are taken from patent US11214803B2, “Modulators of YAP1 expression” (Ionis Pharmaceuticals, Inc., priority 2019, dated 2022).

Strand notation (5' to 3'): a small letter for the sugar, then the base; units joined by * are phosphorothioate-linked, units joined directly phosphodiester-linked; [ ] holds rarer units or linkages, { } end groups; capitals alone tell only the bases. k = constrained ethyl (cEt); [5mC] = 5-methylcytosine; d = 2'-deoxy (DNA) Some results are limits rather than exact numbers.

The test system of series [1] is Yap1 mRNA. Put plainly: Dose-dependent inhibition of human Yap1 in A-431 cells (Example 8, 10,000 cells per well, RTS4814). The class given is cell-based. As to conditions: for Yap1 mRNA, % UTC: A-431 cells, 10,000 cells per well; for IC50 / % UTC (Yap1 mRNA): A-431 cells. Summed up: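 Yap1 mRNA, normalized to RIBOGREEN total RNA and expressed as % untreated control, was read with RTS4814 about 48 h after free-uptake oligonucleotide treatment of A-431 cells at 10,000 cells/well. IC50 derived by linear regression of log/linear data.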

The test system of series [2] is Yap1 mRNA. Put plainly: Antisense inhibition of human Yap1 in A-431 cells by cEt gapmers, single dose (Example 3, RTS36584). The class given is cell-based. In outline: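 Single-dose free-uptake screen of 3-10-3 cEt gapmers in A-431 cells at 2,000 nM over about 48 h. Values are % untreated control Yap1 mRNA.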
The mark [3] stands for this setting: 31.3 nM, free uptake, approximately 48 hours, RTS4814.
[4] abbreviates: 125.0 nM, free uptake, approximately 48 hours, RTS4814.
[5] abbreviates: 500.0 nM, free uptake, approximately 48 hours, RTS4814.
Setting [6] is: 2000.00 nM, free uptake, approximately 48 hours, RTS4814.
[7] abbreviates: free uptake, approximately 48 hours, RTS4814, linear regression on log/linear plot.
The mark [8] stands for this setting: Table 28, Yap1 mRNA as percent of untreated control, 3-10-3 cEt gapmers targeting SEQ ID NO.: 1, and 2.
[9] abbreviates: Table 29, Yap1 mRNA as percent of untreated control, 3-10-3 cEt gapmers targeting SEQ ID NO.: 1, and 2.
The mark [10] stands for this setting: Table 27, Yap1 mRNA by 3-10-3 cEt gapmers targeting SEQ ID NO.: 1, and 2, percent of untreated control.

Consider “1074766 (kA*kT*k[5mC]*d[5mC]*d[5mC]*dA*dA*dT*dG*d[5mC]*dT*dA*d[5mC]*k[5mC]*k[5mC]*kA; antisense) [compound 1074766]”, for which the “Yap1 mRNA, % UTC” value in series [1] (setting [3]) is recorded as 72 % UTC; in series [1] (setting [4]) it was 32 % UTC; in series [1] (setting [5]), 14 % UTC; in series [1] (setting [6]), 7 % UTC. In addition, the IC50 (usually the point on the concentration scale where inhibition reaches its midpoint) in series [1] (setting [7]) was 0.1 µM. The “YAP1 (% UTC)” value in series [2] (setting [8]) was determined as 8 % UTC.
Turning to “1076174 (kG*kA*kT*dA*dT*dA*dT*dG*dG*dT*dA*dG*d[5mC]*kA*kT*kA; antisense) [compound 1076174]”, the “Yap1 mRNA, % UTC” value is 58 % UTC in series [1] (setting [3]), 21 % UTC in series [1] (setting [4]), 7 % UTC in series [1] (setting [5]) and 4 % UTC in series [1] (setting [6]). The IC50 in series [1] (setting [7]) is < 0.02 µM. Moreover, the “YAP1 (% UTC)” value in series [2] (setting [8]) came to 3 % UTC.
With “1076367 (antisense k[5mC]*kT*kA*dT*dT*dT*dA*d[5mC]*dA*dT*dG*dA*dG*kA*kG*kG) [compound 1076367]”, the “Yap1 mRNA, % UTC” value is 31 % UTC in series [1] (setting [3]), 10 % UTC in series [1] (setting [4]), 4 % UTC in series [1] (setting [5]) and 3 % UTC in series [1] (setting [6]). In series [1] (setting [7]), the IC50 was < 0.02 µM. The “YAP1 (% UTC)” value in series [2] (setting [9]) was 3 % UTC.
With “1074445 (kT*kG*kA*dT*dA*dG*d[5mC]*dA*d[5mC]*dT*dA*dG*dG*kA*kG*kG; antisense) [compound 1074445]”, the “Yap1 mRNA, % UTC” value in series [1] (setting [3]) was 57 % UTC; in series [1] (setting [4]), 19 % UTC; in series [1] (setting [5]), 8 % UTC; in series [1] (setting [6]), 6 % UTC. In addition, the concentration for half-maximal inhibition (IC50) in series [1] (setting [7]) was < 0.02 µM. Moreover, the “YAP1 (% UTC)” value in series [2] (setting [10]) is listed as 6 % UTC.
With “1076462 (kT*k[5mC]*kA*dG*dA*dA*dG*dG*dA*dT*dA*dT*dG*k[5mC]*kA*kG; antisense) [compound 1076462]”, the “Yap1 mRNA, % UTC” value in series [1] (setting [3]) was 61 % UTC; in series [1] (setting [4]), 22 % UTC; in series [1] (setting [5]), 8 % UTC; in series [1] (setting [6]) it was 5 % UTC. In series [1] (setting [7]), this substance showed an IC50 of 0.03 µM. The “YAP1 (% UTC)” value in series [2] (setting [8]) was 6 % UTC.
For “1076015 (kA*kT*kT*dT*dA*dG*dT*dT*dG*dG*dT*dT*dG*kT*kT*kA; antisense) [compound 1076015]”, the “Yap1 mRNA, % UTC” value in series [1] (setting [3]) is 70 % UTC; in series [1] (setting [4]), 37 % UTC; in series [1] (setting [5]), 15 % UTC; in series [1] (setting [6]) it was 9 % UTC. In series [1] (setting [7]), this substance gave an IC50 of 0.1 µM. Besides, the “YAP1 (% UTC)” value in series [2] (setting [9]) was 8 % UTC.
Consider “1076084 (k[5mC]*kA*kT*d[5mC]*dA*dA*dT*dA*dG*dA*dG*dA*dG*kT*k[5mC]*kG; antisense) [compound 1076084]”, for which the “% UTC (Yap1 mRNA)” value in series [1] (31.3 nM) is 69 % UTC; in series [1] (125.0 nM) it was 34 % UTC; in series [1] (500.0 nM), 12 % UTC; in series [1] (2000.00 nM), 8 % UTC. In series [1] (Yap1 mRNA), this substance returned an IC50 of 0.1 µM. Further, the “YAP1 (% UTC)” value in series [2] (Table 34, Yap1 mRNA as percent of untreated control, 3-10-3 cEt gapmers targeting SEQ ID NO: 1 and 2, single dose) came to 7 % UTC.
For “1075757 (k[5mC]*kT*kT*dA*dA*dT*dA*d[5mC]*dA*dT*dT*dA*dT*kT*k[5mC]*k[5mC]; antisense) [compound 1075757]”, the “Yap1 mRNA, % UTC” value in series [1] (setting [3]) is 43 % UTC; in series [1] (setting [4]), 14 % UTC; in series [1] (setting [5]) it was 5 % UTC; in series [1] (setting [6]) it was 2 % UTC. Besides, in series [1] (setting [7]), the IC50 was < 0.02 µM. Besides, the “YAP1 (% UTC)” value in series [2] (setting [10]) is 2 % UTC.
For “1076396 (antisense k[5mC]*kT*kA*dT*dA*dT*dT*dT*dG*dA*dG*d[5mC]*d[5mC]*kA*kT*kG) [compound 1076396]”, the “Yap1 mRNA, % UTC” value in series [1] (setting [3]) turned out to be 64 % UTC; in series [1] (setting [4]), 22 % UTC; in series [1] (setting [5]), 5 % UTC; in series [1] (setting [6]), 3 % UTC. Also, the IC50 in series [1] (setting [7]) is 0.04 µM. Also, the “YAP1 (% UTC)” value in series [2] (Table 26, Yap1 mRNA by 3-10-3 cEt gapmers targeting SEQ ID NO.: 1, and 2, percent of untreated control) is recorded as 2 % UTC.
As to “1074639 (antisense kT*kA*kG*dA*dT*dT*dT*dT*dG*dT*dA*dA*dT*kT*kG*kG) [compound 1074639]”, the “Yap1 mRNA, % UTC” value in series [1] (setting [3]) is reported as 46 % UTC; in series [1] (setting [4]) it was 18 % UTC; in series [1] (setting [5]), 7 % UTC; in series [1] (setting [6]) it was 5 % UTC. The half-maximal inhibitory concentration (IC50) in series [1] (setting [7]) was < 0.02 µM. In addition, the “YAP1 (% UTC)” value in series [2] (setting [9]) was determined as 3 % UTC.
In the case of “1075093 (k[5mC]*kA*kA*dA*dG*dT*dA*dA*dG*dG*dT*dA*dT*kG*kA*kG; antisense) [compound 1075093]”, the “% UTC (Yap1 mRNA)” value in series [1] (31.3 nM) is given as 74 % UTC; in series [1] (125.0 nM), 26 % UTC; in series [1] (500.0 nM), 7 % UTC; in series [1] (2000.00 nM) it was 4 % UTC. Moreover, in series [1] (Yap1 mRNA), the IC50 is 0.1 µM. The “YAP1 (% UTC)” value in series [2] (Table 35, Yap1 mRNA as percent of untreated control, 3-10-3 cEt gapmers targeting SEQ ID NO: 1 and 2, single dose) is on record as 3 % UTC.
